Assays:
ICR mice = test: Host pretreatment before i.v. CLDC or naked DNA, tissue luciferase activity; type: in vivo, mouse
Experimental: Plasmid: p4241 (HCMV-luciferase, see Liu et al., 1997).
Liposomes: DOTIM:chol MLV in 1:1 molar ratio.
DNA:Liposome Ratio: liposome:plasmid 1:16 (μg plasmid DNA to nanomoles total lipid).
Pretreatment: Individual mice in groups of 5 received either 200 μl of D5W only by IV injection, 1 mg dexamethasone (Sigma) in 200 μl D5W by IV tail vein injection, 250 μg Ticlopidine (Sigma) dissolved in 200 μl D5W by IV injection, 175 μg ammonium chloride (Fisher) dissolved in 1000 μl D5W by IP injection, respectively, four hours before IV injection of CLDC. For 4-APP pretreatment, a group of 5 mice were IP injected with 1.5 mg of 4-Aminopyrazolo(3,4d)-pyrimidine (Sigma, A2630) dissolved in 1 ml 0.01 M sodium phosphate, pH 2.5, daily for three days before receiving an IV injection of p4241-containing CLDC as described above. Another group of 5 mice received 1 ml 0.01 M Sodium Phosphate, pH 2.5 solution by IP injection daily for three days before receiving an injection of IV CLDC as above, thus serving as control for 4-APP pretreatment group.
DNA dose: 40 μg plasmid DNA in 200 μl of 5% dextrose in water (D5@) was injected by tail vein per mouse.
Animals: ICR mice:female, 25 grams (Simonsen Labs, Gilroy, Calif.).
Quantitation of luciferase: Twenty-four hours after injection of CLDC, mice were sacrificed in a CO2 chamber, and lungs, heart, spleen and liver were collected and assayed for luciferase activity. Relative light units were converted to luciferase activity, and an unpaired, two side Student's t test applied for statistical analysis of potential differences between groups as described previously (Liu et al., 1997).
In another experiment, the effect of pretreatment on subsequent expression of the same plasmids delivered as naked DNA was examined. Pretreated animals were injected with 6.25 mg of mannitol (Sigma, MO) in 200 microliters of water 2 hours or 24 hours prior to iv administration of the p4241 luciferase vector as naked DNA in water, 50% glycerol or D5W. Control animals received water alone as a pretreatment. […]

murine B 16 cells = test: Inhibition of in vitro CLDC-mediated transfection (luciferase) by polysaccharide pretreatment
B16 cells, PPC-1 cells = test: Effect on calcium phosphate, adenoviral and electroporation transfection in vitro; type: cell-based
Experimental: B16 cells were electroporated with p4241 as per BioRad (Hercules, Calif.) instructions for the GenePulser II. Calcium phosphate transfections were performed as described in the manufacturer's instructions (Gibco BRL, Grand Island, N.Y.). Adenoviral infection of PPC-1 cells was performed as previously described (Graham and […], 1991).

B16 cells = test: DNA uptake by cells after CLDC transfection (luciferase, Southern analysis of nuclear and total DNA); type: cell-based, mouse
Experimental: Southern analysis. Isolation of total DNA from mouse tissues was performed as described (Liu et al., 1997). Approximately 2×10^6 B16 cells were cultured in 100 mm dishes for each DNA extraction from cultured cells. Two hundred nanograms of DNA per lane were fractionated on 1% agarose/1X TAE gels overnight. Blotting onto Hybond membrane (Amersham, Arlington Heights, Ill.), prehybridization, hybridization, and washes were performed as described (Sambrook et al., 1989). A 1.2 kb HindIII/EcoRV gel-purified fragment of luciferase from p4241 was radioactively labelled using the Random Primed DNA Labeling Kit (Boehringer Mannheim, Indianapolis, Ind.). Nuclei were isolated from 2×10^6 B16 cells as described (Sambrook et al., 1989), and lysed in NP40 lysis buffer (10 mM Tris, pH 7.4, 10 mM sodium chloride, 3 mM magnesium chloride, and 0.5% nonidet P-40). Nuclear DNA was then isolated from washed nuclei using the same technique as for total DNA isolation (Sambrook et al., 1989).
Fucoidan inhibited CLDC-mediated transfection in vitro by blocking DNA uptake by cells. Nuclei were isolated from cells untreated or pretreated with fucoidan and subsequently transfected with CLDC, and nuclear DNA was assayed for the presence of the luciferase plasmid used in making the complex. The nuclei of cells untreated with fucoidan contained luciferase plasmid, as expected from the high levels of luciferase activity observed in untreated cells. Therefore, DNA did traverse the cell membranes of untreated cells.

ICR female mice = test: Pretreatment of mice before intravenous CLDC (p4241): luciferase, Southern analysis, rhodamine-lipid; type: in vivo, mouse
Experimental: In vivo transfections. Each mouse received 50 μg p4241 complexed to DOTIM:cholesterol MLV containing 1 mole % rhodamine-PE at a ratio of 1:16 (μg DNA per nmole total lipid). Approximately 25 g ICR female mice (Simonson, Gilroy, Calif.) received 200 μl of CLDC intravenously by tail vein injection. Pretreatments of mice were also by intravenous tail vein injections. Fucoidan, dissolved in phosphate buffered saline (PBS), was pre-injected at a dosage of 500 μg per mouse 0, 1, 2, 10, 24, or 48 hrs prior to CLDC injection. Heparinase I and III (Sigma) were dissolved in 0.15 M sodium chloride at a concentration of 75 units per 100 μl, and 100 μl per mouse were injected 15 minutes prior to injection of CLDC. Control mice were preinjected at appropriate times with either PBS or 0.15 M sodium chloride. As an additional control, heparinase I was boiled for 10 minutes to denature and deactivate the enzyme prior to pre-injection. Mice were harvested 24 hours post-CLDC injection, and pieces of lung, liver, heart, and spleen were placed in 1X lysis buffer (Promega, Madison, Wis.) on ice for luciferase assays (Liu et al., 1997). Samples of liver and lung were frozen on dry ice prior to Bligh Dyer extractions for rhodamine-liposome fluorescence analysis and isolation of DNA for Southern analysis as described (Liu et al., 1997).

[1] = cells pretreated for 30 minutes with 1 μM
[2] = iv 15 minutes before CLDC injection

Nc1ncnc2[nH]ncc12 [Plasmid 4-APP, 4-Aminopyrazolo(3,4d)-pyrimidine]
luciferase activity versus buffer-pretreated mice (ICR mice; preinjection before iv CLDC (p4241), 24 hours after CLDC): significantly increased luciferase activity

OC[C@@H](O)[C@@H](O)[C@H](O)[C@H](O)CO [mannitol]
in vivo expression of luciferase from p4241 versus controls (ICR mice; 6.25 mg 2 hours prior to iv naked DNA): significantly higher
luciferase expression (ICR mice; 6.25 mg 24 hours prior to p4241): Some increase

dextran
CLDC transfection at high concentrations (murine B 16 cells): significant elevation of transfection
CLDC transfection in vitro after pretreatment of cells (murine B 16 cells): failed to inhibit transfection

dextran sulfate
CLDC transfection in vitro after pretreatment of cells (murine B 16 cells): largely blocked
concentration sufficient to block transfection (murine B 16 cells; murine B 16 cells): 10 nM

fucoidan
transfection by calcium phosphate (B16 cells, PPC-1 cells): inhibited the transfection
luciferase DNA in nuclei (B16 cells; [1]): no luciferase DNA in their nuclei
luciferase expression of cells (B16 cells; [1]): did not express luciferase
Southern analysis of total DNA from whole cell extracts (B16 cells; pretreated cultured cells): failed to show evidence of any DNA crossing the cell membranes
luciferase activity in lung and heart tissues (ICR female mice; 500 μg per mouse iv, 1 hour before CLDC): drastic reductions in luciferase activity
CLDC mediated transfection of lung cells (ICR female mice; 10 hours post exposure): still inhibits CLDC mediated transfection of lung cells
rhodamine-lipid found in the lung and liver (ICR female mice; one hour pretreatment): significantly decreased levels of rhodamine-lipid
p4241 plasmid in total DNA from lungs and livers (Southern analysis) (ICR female mice; pretreated for 1 hour): decreased levels of p4241 plasmid
magnitude of luciferase depression in tissues (ICR female mice; pretreated for 1 hour in vivo): approximately 100 fold
decrease in p4241 plasmid in nuclear DNA isolated from lungs (ICR female mice; treated versus untreated animals): 3 fold
CLDC transfection in vitro after pretreatment of cells (murine B 16 cells): largely blocked
effect on CLDC-mediated transfection, cells pretreated (murine B 16 cells; 10 nM): little effect

heparin
CLDC-mediated gene transfer following intravenous injection of CLDC into mice (ICR female mice; mouse, in vivo, iv): abolished CLDC-mediated gene transfer
CLDC transfection in vitro after pretreatment of cells (murine B 16 cells): largely blocked

heparinase I
reporter plasmid DNA in lungs, fold less than control lungs (Southern analysis) (ICR female mice; [2]): 2 fold
rhodamine labelled lipid recovered from lungs (ICR female mice; [2]): significantly decreased the levels of rhodamine labelled lipid
transfection efficiency of CLDC (luciferase) in lungs, hearts and spleens (ICR female mice; [2]): significantly decreased

From patent US20020065213A1, “METHODS AND COMPOSITIONS FOR NONVIRAL GENE DELIVERY” (priority 1998, published 2002)
